Series [1] has as its system mouse embryonic cells. Briefly: ActD-induced apoptosis in MECs (PS externalization, caspase-3, DNA fragmentation). The format is cell-based. Further details: protection against ActD-induced apoptosis: dose or concentration left out as unconfirmed. As to conditions: for DNA fragmentation / caspase-3 activation / number of annexin V-positive cells (PS externalization): 10 μM, ActD 100 ng/mL; for effect at concentrations in excess of 10 μM: PS externalization. From the text:
Cells that annexin V-positive and PI-negative were considered apoptotic.

In series [2] the test system is mitochondria of 32D c13 hemopoietic cells. Briefly: Mass spectrometry of conjugates in isolated mitochondria. The format is cell-based, mouse. Conditions: 100 μM, 2 h; for permeation of the mitochondrial membrane (mass spectrometry): 37° C.; for Fmole/10 μM mitochondrial protein: mouse. Here is the method:
An unconjugated and conjugated NOS antagonist, (AMT, 100 μM) and an unconjugated and conjugated nitroxide derivative (4-amino-TEMPO, 100 μM) were incubated for two hours at 37° C. with 32D c13 hemopoietic cells.
Following incubation, the cells were lysed and the mitochondria isolated for a mass spectrometry analysis where compounds isolated from mitochondria were identified as Na+ adducts. […] Thus, the targeting peptides successfully direct a NOS antagonist and a nitroxide to the mitochondria.
Quantitative mass spectrometry studies were used to compare the effectiveness of several AMT peptide conjugates in permeating the mitochondrial membrane, specifically XJB-5-234, XJB-5-133, XJB-5-241, and XJB-5-127. The Fmole/10 μM mitochondrial protein ratio provides a relative quantification of conjugate concentration at the target site.

Series [3] relates to mouse embryonic cells. In words: Intracellular superoxide generation (DHE flow cytometry) in ActD-treated MECs. The format is cell-based. As to conditions: 10 μM pretreatment, ActD 100 ng/mL. Here is the method: Determination of intracellular superoxide radicals Oxidation-dependent fluorogenic dye, dihydroethidium (“DHE”, Molecular Probes) was used to evaluate intracellular production of superoxide radicals. DHE is cell permeable and, in the presence of superoxide, is oxidized to fluorescent ethidium which intercalates into DNA. The fluorescence of ethidium was measured using a FACscan (Becton-Dickinson, Rutherford, N.J.) flow cytometer, equipped with a 488-nm argon ion laser and supplied with the Cell Quest software. Mean fluorescence intensity from 10,000 cells were acquired using a 585-nm bandpass filter (FL-2 channel).
On the technique in general: In flow cytometry, cells or beads pass a laser one at a time.

The subject of series [4] is irradiated uroepithelial cells. In words: NO and peroxynitrite production in irradiated uroepithelial cells (microsensor). The format is cell-based. Conditions: AMT 10 μM, 4-amino-TEMPO 100 μM; 24 h after irradiation. The protocol:
Further physiological studies were conducted to determine the effects of peptide-targeted AMT and 4-amino-TEMPO on NO and peroxynitrite production in irradiated uroepithelial cells. The cells were cultured in an 8-well slide chamber for 3 days and then microsensor measurements were taken 24 hours after irradiation.
In cells treated with high-dose conjugated 4-amin-TEMPO (100 μM), peroxynitrite production was decreased by approximately 4-fold.

Series [5] relates to mouse embryonic cells. In words: EPR-based analysis of integration and reduction of nitroxide Gramicidin S-peptidyl conjugates in MECs. As to conditions: 10 μM, MECs and mitochondria isolated from them. The series is classed as cell-based. The protocol:
Electron paramagnetic resonance (“EPR”) spectroscopy was used to monitor the cellular delivery of compounds 5a and 5b shown in FIG. 3 in mouse embryonic cells (“MEC”).
The following conditions were used during the EPR-based analysis of the integration and reduction of nitroxide Gramicidin S-peptidyl conjugates in MECs. The MECs at a concentration of 10 million MECs per mL were incubated with 10 μM of 4-AT and compound 5a, respectively. Recovered nitroxide radicals in whole cells, mitochondria, and cytosol fractions were resuspended in phosphate buffer saline (“PBS”) in the presence and absence, respectively, of 2 μM K3Fe(CN)6.

For series [6] the following is noted: comparison drugs; cited from earlier work.
Series [7] relates to 32D cl 3 murine hematopoietic cells. In words: Gamma-irradiation dose survival curves of 32D cl 3 cells (XJB-5-125, Tempol). The series is classed as cell-based, mouse. The text has this: FIG. 16 illustrates the effect of GS conjugated nitroxide, XJB-5-125, on gamma-irradiation dose survival curves of 32D cl 3 murine hematopoietic cells.

Each structure is given as a SMILES string. Where a SMILES comes first, the peptide text is derived from it. [ ]: non-standard residue; d: D form. The star is where a group is joined. NH(TEMPO-4-yl) = CC1(C)CC(N*)CC(C)(C)N1[O]; Orn = NCCC[C@H](N)C(=O)O; Cbz = O=C(OCc1ccccc1)*; Boc = CC(C)(C)OC(=O)*; X1 = CC1CCN=C(N*)S1

Regarding `CC1(C)CC(N)CC(C)(C)N1[O]` [4-amino-TEMPO, reference compound], the “protection against ActD-induced apoptosis” value with mouse embryonic cells [1] (low concentrations) is listed as “afforded no protection”. For the same molecule, in series [2], the “permeation of the mitochondrial membrane (mass spectrometry)” value was “only permeate the mitochondrial membrane with the assistance of the attached GS-derived targeting sequence”. Moreover, in the series on mouse embryonic cells [3], the intracellular superoxide generation entry is listed as “no effect”. Further, the “NO induced peroxynitrite formation” value in series [4] is “comparable amount of peroxynitrite”. Further, the “integration into cells and mitochondria (EPR signals of nitroxide radicals)” value with mouse embryonic cells [5] is “did not effectively permeate cells or the mitochondria”.

With `CC(C)C[C@@H](/C=C/[C@H](Cc1ccccc1)C(=O)N1CCC[C@H]1C(=O)N[C@H](C(=O)N[C@@H](CCCNC(=O)OCc1ccccc1)C(=O)NC1CC(C)(C)N([O])C(C)(C)C1)C(C)C)NC(=O)OC(C)(C)C` [Compound 5a], in the series with mouse embryonic cells [1], the DNA fragmentation result is recorded as “prevented DNA fragmentation”, the caspase-3 activation entry was “prevented caspase-3 activation”, the “number of annexin V-positive cells (PS externalization)” value was “reduced the number of annexin V-positive cells” and the “effect at concentrations in excess of 10 μM” value was “either less protective or exhibited cytotoxicity”. For the same molecule, the intracellular superoxide generation result with mouse embryonic cells [3] is recorded as “completely inhibited”. In the series on mouse embryonic cells [5], the “integration into cells and mitochondria (EPR signals of nitroxide radicals)” value is listed as “triplet signals of nitroxide radicals were detected”.

In the case of `CC(C)C[C@H](NC(=O)OC(C)(C)C)C(=O)N[C@H](Cc1ccccc1)C(=O)N1CCC[C@H]1C(=O)N[C@H](C(=O)N[C@@H](CCCNC(=O)OCc1ccccc1)C(=O)NC1CC(C)(C)N([O])C(C)(C)C1)C(C)C` [Compound 5b] (Boc-L[dF]PV[Orn](Cbz)-{NH(TEMPO-4-yl)}), in the series with mouse embryonic cells [1], the DNA fragmentation entry is on record as “prevented DNA fragmentation”, the caspase-3 activation entry is reported as “prevented caspase-3 activation”, the “number of annexin V-positive cells (PS externalization)” value is listed as “reduced the number of annexin V-positive cells” and the “effect at concentrations in excess of 10 μM” value is on record as “either less protective or exhibited cytotoxicity”. The intracellular superoxide generation entry in the series with mouse embryonic cells [3] is on record as “completely inhibited”.

As to `COc1ccc2c(c1)c(CC(=O)O)c(C)n2C(=O)c1ccc(Cl)cc1` [Indomethecin], in series [6], the “log Ko/w” value was 4.23.

Take `CC1(C)CC(O)CC(C)(C)N1[O]` [TEMPOL, 4-hydroxy-2,2,6,6-tetramethylpiperidine-N-oxyl]: the “n (shoulder on the survival curve)” value in series [7] is given as 5.82. In series [7] (vs 0.797 Gy for 32D cl 3 cells alone), this molecule had a Do of 1.209 Gy.

In the case of `CC(C)C[C@H](NC(=O)OC(C)(C)C)C(=O)N[C@H](Cc1ccccc1)C(=O)N1CCC[C@H]1C(=O)N[C@H](C(=O)N[C@@H](CCCNC(=O)OCc1ccccc1)C(=O)NC1=NCCC(C)S1)C(C)C` (stereo partly drawn) [XJB-5-127, Boc-Leu-^DPhe-Pro-Val-Orn(Cbz)-AMT] (Boc-L[dF]PV[Orn](Cbz)-X1), the “Fmole/10 μM mitochondrial protein” value in series [2] is reported as 50.8 Fmole/10 μM mitochondrial protein.

As to `CC(C)C[C@@H](/C=C/[C@H](Cc1ccccc1)C(=O)N1CCC[C@H]1C(=O)N[C@H](C(=O)N[C@@H](CCCNC(=O)OCc1ccccc1)C(=O)NC1=NCCC(C)S1)C(C)C)NC(=O)OC(C)(C)C` (stereo partly drawn) [XJB-5-133, Boc-Leu-ψ[(E)-CH═CH]-^DPhe-Pro-Val-Orn(Cbz)-AMT], in series [2], the “Fmole/10 μM mitochondrial protein” value is reported as 89.8 Fmole/10 μM mitochondrial protein.

As for `CC(C)C[C@@H](/C=C/[C@H](Cc1ccccc1)C(=O)NC1=NCCC(C)S1)NC(=O)OC(C)(C)C` (stereo partly drawn) [XJB-5-234, Boc-Leu-ψ[(E)-CH═CH]-^DPhe-AMT], the “Fmole/10 μM mitochondrial protein” value in series [2] was 1.45 Fmole/10 μM mitochondrial protein.

Consider `C/C(=C\[C@H](Cc1ccccc1)C(=O)N1CCC[C@H]1C(=O)N[C@H](C(=O)N[C@@H](CCCNC(=O)OCc1ccccc1)C(=O)NC1=NCCC(C)S1)C(C)C)[C@H](CC(C)C)NC(=O)OC(C)(C)C` (stereo partly drawn) [XJB-5-241, Boc-Leu-ψ[(E)-C(CH3)═CH]^DPhe-Pro-Val-Orn(Cbz)-AMT], for which the “Fmole/10 μM mitochondrial protein” value in series [2] is listed as 103.3 Fmole/10 μM mitochondrial protein.

`Clc1ccccc1C(c1ccccc1)(c1ccccc1)n1ccnc1` [clotrimazole]: the “log Ko/w” value in series [6] is 6.27.

Regarding `CC(=O)N1CCN(c2ccc(OCC3COC(Cn4ccnc4)(c4ccc(Cl)cc4Cl)O3)cc2)CC1` (stereo not drawn) [ketaconazole], the “log Ko/w” value in series [6] is reported as 4.34.

In the case of `CC1CCN=C(N)S1` (stereo not drawn) [unconjugated AMT, 2-amino-6-methyl-thiazine, reference compound], in series [2], the “permeation of the mitochondrial membrane (mass spectrometry)” value is “do not enter the mitochondria membrane in substantial quantities”. Moreover, the “NO induced peroxynitrite formation” value in series [4] is “comparable amount of peroxynitrite”.

The values above are taken from patent publication US8822541B2, “Use of targeted nitroxide agents in mitigating or treating radiation injury” (University of Pittsburgh—Of the Commonwealth System of …, priority 2008, dated 2014).
